# Where two headings read alike, the source gives them in different places.
# Tests used:
# [1] = Study .4: 4-week treatment of diabetic patients, once daily, pharmacokinetic parameters; format: in vivo, human; settings: human, plasma, oral, 25 mg, Study .4, fasted
# Experimental: (§1) 5. Pharmacokinetic Parameters
# (§2) The pharmacokinetic parameters of pharmaceutical compositions and pharmaceutical dosage forms are assessed in healthy volunteer and patient populations. In the studies shown below, the participants fasted on the day of sampling, unless as otherwise stated (see for example study .3). The active substance in the studies below is the compound (I.9), preferably in the crystalline form (I.9X), and the dose of active ingredient is indicated in mg.
# (§3) For the quantification of plasma concentrations of the active ingredient, 2.7 mL of blood was collected and transferred into an EDTA (ethylendiaminetetraacetic acid)-anticoagulant blood drawing tube. The EDTA-anticoagulated blood samples were centrifuged immediately after collection. Centrifugation lasted for about 10 minutes (at about 2,000×gf to 4,000×gf) at 4-8° C. or within 30 minutes while stored on ice. Concentrations of active substance in EDTA human plasma samples were quantitated using a HPLC/MS/MS method. The assay method comprised a solid phase supported liquid-liquid extraction of human plasma coupled with HPLC/MS/MS determination of the extracted samples. The HPLC/MS/MS assay was validated for the range of 1.11 to 1110 nM in human plasma.
# (§4) Study .4: 4-week treatment of a diabetic patient population of N=78, once daily administration for 4 weeks. Patients were administered tablets as described in Example 10 (section Examples of formulations).
# (§5) AUC0-inf:area under the concentration-time curve of the analyte in plasma over the time interval from 0 extrapolated to infinity.
# (§6) Cmax: maximum concentration of the analyte in plasma.
# (§7) Tmax: time from dosing to maximum concentration.
# (§8) AUCT,SS:area under the concentration-time curve of the analyte in plasma over the time interval from 0 to 24 h at steady-state.
# (§9) Cmax,ss:maximum concentration of the analyte in plasma at steady state over a uniform dosing interval.
# (§10) tmax,ss:time from dosing to maximum concentration at steady state.
# [2] = Pharmacokinetic profile in fasting humans, ranges over Studies .1 to .5; format: in vivo; settings: human, plasma, oral
# Experimental: as §1, §2, §3
# Study .1: Single dose study in a healthy volunteer population of N=72. Healthy volunteers were administered tablets as described in Example 10 (section Examples of formulations).
# Study .2: Multiple rising dose trial in a diabetic patient population of N=48, once daily administration for 8 days. Patients were administered tablets as described in Example 10 (section Examples of formulations).
# Study .3: Single dose, cross-over, food effect study in a healthy volunteer population of N=14. Healthy volunteers were administered tablets as described in Example 10 (section Examples of formulations).
# as §4
# Study .5: Single dose study in a healthy volunteer population of N=48 (Japanese volunteers). Healthy volunteers were administered tablets as described in Example 11 (section Examples of formulations).
# as §5, §6, §7, §8, §9, §10
compound,measurement,setting,value
"OC[C@H]1O[C@@H](c2ccc(Cl)c(Cc3ccc(O[C@H]4CCOC4)cc3)c2)[C@H](O)[C@@H](O)[C@@H]1O [Compound (I.9), 1-chloro-4-(β-D-glucopyranos-1-yl)-2-[4-((S)-tetrahydrofuran-3-yloxy)-benzyl]-benzene]",Cmax,"[1]; 25 mg once daily, steady state, read-out: Cmax,ss gMean",676 nM
same,Tmax,"[1]; 25 mg once daily, steady state, read-out: tmax,ss Mean",1.55 h
same,Tmax,"[1]; 25 mg once daily, steady state, read-out: tmax,ss Median",1.5 h
same,Tmax,"[1]; 25 mg once daily, steady state, read-out: tmax,ss g Mean",1.4 h
same,AUC(0-inf),"[1]; 25 mg single dose, read-out: AUC0-inf Mean",4.34 µM·h
same,AUC(0-inf),"[1]; 25 mg single dose, read-out: AUC0-inf Median",4.27 µM·h
same,AUC(0-inf),"[1]; 25 mg single dose, read-out: AUC0-inf gMean",4.24 µM·h
same,Cmax,"[1]; 25 mg single dose, read-out: Cmax Mean",722 nM
same,Cmax,"[1]; 25 mg single dose, read-out: Cmax Median",697 nM
same,Cmax,"[1]; 25 mg single dose, read-out: Cmax gMean",709 nM
same,Tmax,"[1]; 25 mg single dose, read-out: tmax Mean",1.39 h
same,Tmax,"[1]; 25 mg single dose, read-out: tmax Median",1.5 h
same,Tmax,"[1]; 25 mg single dose, read-out: tmax gMean",1.33 h
same,AUC,"[2]; 2.5 mg, dose of 2.5 mg, read-out: AUC",0.283 to 0.677 µM·h
same,Cmax,"[2]; 2.5 mg, dose of 2.5 mg, read-out: Cmax",40.3 to 96.3 nM
same,AUC,"[2]; 2.5 mg, dose of 2.5 mg, read-out: geometric mean AUC",0.394 to 0.468 µM·h
same,Cmax,"[2]; 2.5 mg, dose of 2.5 mg, read-out: geometric mean Cmax",52.9 to 66.6 nM
same,AUC,"[2]; 2.5 mg, multiple doses of 2.5 mg, read-out: AUCτ,ss",0.283 to 0.677 µM·h
same,Cmax,"[2]; 2.5 mg, multiple doses of 2.5 mg, read-out: Cmax,ss",40.3 to 96.3 nM
same,AUC(0-inf),"[2]; 2.5 mg, single dose of 2.5 mg, read-out: AUC0-inf",0.326 to 0.631 µM·h
same,Cmax,"[2]; 2.5 mg, single dose of 2.5 mg, read-out: Cmax",42.8 to 81.2 nM
same,AUC(0-inf),"[2]; 2.5 mg, single dose of 2.5 mg, read-out: geometric mean AUC0-inf",0.394 to 0.468 µM·h
same,Cmax,"[2]; 2.5 mg, single dose of 2.5 mg, read-out: geometric mean Cmax",52.9 to 61.3 nM
same,AUC,"[2]; 5 mg, dose of 5.0 mg, read-out: AUC",1 to 1.31 µM·h
same,Cmax,"[2]; 5 mg, dose of 5.0 mg, read-out: Cmax",123 to 230 nM
same,AUC(0-inf),"[2]; 5 mg, single dose of 5.0 mg, read-out: AUC0-inf",1 to 1.31 µM·h
same,Cmax,"[2]; 5 mg, single dose of 5.0 mg, read-out: Cmax",123 to 230 nM
same,AUC,"[2]; 10 mg, dose of 10.0 mg, read-out: AUC",1.17 to 3.19 µM·h
same,Cmax,"[2]; 10 mg, dose of 10.0 mg, read-out: Cmax",143 to 796 nM
same,AUC,"[2]; 10 mg, dose of 10.0 mg, read-out: geometric mean AUC",1.69 to 2.66 µM·h
same,Cmax,"[2]; 10 mg, dose of 10.0 mg, read-out: geometric mean Cmax",221 to 372 nM
same,AUC,"[2]; 10 mg, multiple doses of 10.0 mg, read-out: AUCτ,ss",1.35 to 2.6 µM·h
same,Cmax,"[2]; 10 mg, multiple doses of 10.0 mg, read-out: Cmax,ss",166 to 479 nM
same,AUC,"[2]; 10 mg, multiple doses of 10.0 mg, read-out: geometric mean AUCτ,ss",1.85 to 2 µM·h
same,Cmax,"[2]; 10 mg, multiple doses of 10.0 mg, read-out: geometric mean Cmax,ss",252 to 272 nM
same,AUC(0-inf),"[2]; 10 mg, single dose of 10.0 mg, read-out: AUC0-inf",1.17 to 3.19 µM·h
same,Cmax,"[2]; 10 mg, single dose of 10.0 mg, read-out: Cmax",143 to 796 nM
same,AUC(0-inf),"[2]; 10 mg, single dose of 10.0 mg, read-out: geometric mean AUC0-inf",1.69 to 2.66 µM·h
same,Cmax,"[2]; 10 mg, single dose of 10.0 mg, read-out: geometric mean Cmax",221 to 372 nM
same,AUC,"[2]; 25 mg, dose of 25.0 mg, read-out: AUC",2.66 to 7.64 µM·h
same,Cmax,"[2]; 25 mg, dose of 25.0 mg, read-out: Cmax",334 to 1030 nM
same,AUC,"[2]; 25 mg, dose of 25.0 mg, read-out: geometric mean AUC",3.75 to 6.13 µM·h
same,Cmax,"[2]; 25 mg, dose of 25.0 mg, read-out: geometric mean Cmax",490 to 709 nM
same,AUC,"[2]; 25 mg, multiple doses of 25.0 mg, read-out: AUCτ,ss",2.79 to 7.64 µM·h
same,Cmax,"[2]; 25 mg, multiple doses of 25.0 mg, read-out: Cmax,ss",443 to 907 nM
same,AUC,"[2]; 25 mg, multiple doses of 25.0 mg, read-out: geometric mean AUCτ,ss",4.64 to 4.89 µM·h
same,Cmax,"[2]; 25 mg, multiple doses of 25.0 mg, read-out: geometric mean Cmax,ss",622 to 676 nM
same,AUC(0-inf),"[2]; 25 mg, single dose of 25.0 mg, read-out: AUC0-inf",2.66 to 7.17 µM·h
same,Cmax,"[2]; 25 mg, single dose of 25.0 mg, read-out: Cmax",334 to 1030 nM
same,AUC(0-inf),"[2]; 25 mg, single dose of 25.0 mg, read-out: geometric mean AUC0-inf",3.75 to 6.13 µM·h
same,Cmax,"[2]; 25 mg, single dose of 25.0 mg, read-out: geometric mean Cmax",490 to 709 nM
same,AUC,"[2]; 50 mg, dose of 50.0 mg, read-out: AUC",6.45 to 14.1 µM·h
same,Cmax,"[2]; 50 mg, dose of 50.0 mg, read-out: Cmax",722 to 2020 nM
same,AUC,"[2]; 50 mg, dose of 50.0 mg, read-out: geometric mean AUC",8.31 to 8.46 µM·h
same,Cmax,"[2]; 50 mg, dose of 50.0 mg, read-out: geometric mean Cmax",1080 to 1140 nM
same,AUC(0-inf),"[2]; 50 mg, single dose of 50.0 mg, read-out: AUC0-inf",6.45 to 14.1 µM·h
same,Cmax,"[2]; 50 mg, single dose of 50.0 mg, read-out: Cmax",722 to 2020 nM
same,AUC(0-inf),"[2]; 50 mg, single dose of 50.0 mg, read-out: geometric mean AUC0-inf",8.31 to 8.46 µM·h
same,Cmax,"[2]; 50 mg, single dose of 50.0 mg, read-out: geometric mean Cmax",1080 to 1140 nM

# Source: patent US20180289678A1, “PHARMACEUTICAL COMPOSITION, PHARMACEUTICAL DOSAGE FORM, PROCESS FOR THEIR PREPARATION, METHODS FOR TREATING AND USES THEREOF” (Boehringer Ingelheim International GmbH, priority 2009, published 2018)
